Article PMC11584170 (ACS chemical biology, 2023)

Experiments:
ERRγ = target: T1, ERRγ (Homo sapiens, UniProt P62508); assay: full-length ERR cell-based cotransfection/reporter assay in HEK293 cells; details: full-length ERR cotransfection
T1 sequence (P62508 1-458): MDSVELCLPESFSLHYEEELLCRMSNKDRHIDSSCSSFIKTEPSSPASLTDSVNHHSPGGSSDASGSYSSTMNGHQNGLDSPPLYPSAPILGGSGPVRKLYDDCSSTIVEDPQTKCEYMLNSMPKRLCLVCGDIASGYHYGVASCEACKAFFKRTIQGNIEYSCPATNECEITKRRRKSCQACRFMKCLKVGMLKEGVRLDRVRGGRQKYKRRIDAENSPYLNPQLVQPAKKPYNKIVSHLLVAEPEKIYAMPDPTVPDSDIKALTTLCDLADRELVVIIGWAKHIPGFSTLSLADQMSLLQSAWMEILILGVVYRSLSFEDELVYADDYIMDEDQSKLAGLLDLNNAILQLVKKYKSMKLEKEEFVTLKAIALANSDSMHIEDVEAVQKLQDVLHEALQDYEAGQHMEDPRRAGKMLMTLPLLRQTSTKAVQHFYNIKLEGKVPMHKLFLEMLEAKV

ERRα = target: T2, ERRα (Homo sapiens, UniProt P11474); assay: as above
T2 sequence (P11474 1-423): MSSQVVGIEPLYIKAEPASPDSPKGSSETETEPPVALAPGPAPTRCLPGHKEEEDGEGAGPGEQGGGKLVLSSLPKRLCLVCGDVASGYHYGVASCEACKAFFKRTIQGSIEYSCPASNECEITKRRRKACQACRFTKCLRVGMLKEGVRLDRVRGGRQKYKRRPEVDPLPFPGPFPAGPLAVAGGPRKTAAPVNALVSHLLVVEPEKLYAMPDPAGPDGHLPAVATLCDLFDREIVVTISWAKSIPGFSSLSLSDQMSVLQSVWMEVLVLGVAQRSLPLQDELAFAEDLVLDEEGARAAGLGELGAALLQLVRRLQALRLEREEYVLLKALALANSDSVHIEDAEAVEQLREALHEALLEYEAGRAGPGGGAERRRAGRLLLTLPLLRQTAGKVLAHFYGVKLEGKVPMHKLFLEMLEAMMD

ERRβ = target: T3, ERRβ (Homo sapiens, UniProt O95718); assay: as above; details: read-out: ERRβ EC50
T3 sequence (O95718 1-433): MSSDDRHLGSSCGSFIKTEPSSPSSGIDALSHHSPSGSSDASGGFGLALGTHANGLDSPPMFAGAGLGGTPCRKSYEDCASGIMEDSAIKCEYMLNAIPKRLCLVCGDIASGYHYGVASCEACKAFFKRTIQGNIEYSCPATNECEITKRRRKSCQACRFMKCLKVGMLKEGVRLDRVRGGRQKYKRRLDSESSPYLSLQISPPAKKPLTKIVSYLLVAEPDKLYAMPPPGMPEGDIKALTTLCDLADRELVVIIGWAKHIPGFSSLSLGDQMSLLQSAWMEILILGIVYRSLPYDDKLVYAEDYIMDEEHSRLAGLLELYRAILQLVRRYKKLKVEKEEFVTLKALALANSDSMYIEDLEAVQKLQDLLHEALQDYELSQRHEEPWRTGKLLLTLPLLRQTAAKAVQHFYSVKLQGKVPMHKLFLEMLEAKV

[1] = model of heart failure ref 38; cited from earlier work
C57BL/6J male mice = assay: acute single dose, Ddit4 and Slc25a25 expression in skeletal muscle; assay type: in vivo
mice [2] = assay: grip strength test; assay type: in vivo; details: sedentary mice, 50 mg/kg, 2 weeks
C57BL6/J mice = assay: exercise until exhaustion on rodent treadmill, WT mice; assay type: in vivo; details: sedentary mice, 7 days b.i.d. i.p. 50 mg/kg, run to exhaustion
[3] = tolerability in mice, 10 days dosing; assay type: in vivo
C2C12 cells [4] = assay: Ddit4 gene expression in C2C12 myoblast cell line; assay type: cell-based, mouse; details: C2C12, 10 μM, 1 or 3 h
C57BL/6J mice = assay: chronic treatment, skeletal muscle histology and protein/gene expression; assay type: in vivo
C2C12 cells [5] = assay: ERR target gene; assay type: cell-based, mouse; details: C2C12, 24 h dose-response
[6] = test system: mERRα fl/fl and mERRα−/− mice; assay: exercise endurance in muscle-specific ERRα KO mice; assay type: in vivo
primary mouse myocytes = assay: Ddit4 and Slc25a25 expression in primary myocytes; assay type: cell-based
C2C12 cells [7] = assay: MitoTracker Red staining of C2C12 cells; assay type: cell-based, mouse; details: proliferating C2C12, 10 μM, 24 h
Gal4-ERR LBD = Gal4-ERR LBD chimeric cotransfection assay; assay type: cell-based
ERRγ LBD = target: T4, ERRγ LBD (Homo sapiens, UniProt P62508); assay: differential scanning fluorimetry; details: direct binding
T4 sequence (P62508 233-457 limits assumed): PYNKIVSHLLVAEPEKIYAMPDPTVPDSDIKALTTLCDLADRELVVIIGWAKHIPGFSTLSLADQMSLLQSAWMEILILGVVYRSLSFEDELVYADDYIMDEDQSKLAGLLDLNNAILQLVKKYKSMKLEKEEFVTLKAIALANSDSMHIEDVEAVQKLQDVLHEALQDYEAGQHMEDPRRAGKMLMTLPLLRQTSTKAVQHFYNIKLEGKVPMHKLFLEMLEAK

mice [8] = assay: circadian locomotor activity; assay type: in vivo; details: drug treatment
[9] = 50 mg/kg b.i.d., gastrocnemius muscle
[10] = 14 days b.i.d., i.p, 50 mg/kg, exercise until exhaustion
[11] = quadricep, not induced in mERRα−/−

With CC/C(=C(\c1ccc(O)cc1)c1ccc(OCCN(C)C)cc1)c1ccccc1 [4-hydroXytamoXifen] the “inhibition of ERRγ constitutive activity” value (ERRγ) was ~75%.

In the case of CC(C)c1ccc(/C=N/NC(=O)c2ccc(O)cc2)cc1 [GSK4716], the ERRα agonist activity (ERRα; ERR cotransfection assay) is reported as “very weak agonist activity”, the EC50 (ERRα; read-out: ERRα EC50, full-length ERR, HEK293) is reported as > 5 µM and the EC50 (ERRβ) is reported as > 5 µM.

In the case of O=C(N/N=C/c1ccc2ccccc2c1)c1ccc(O)cc1 [SLU-PP-332, (E)-4-Hydroxy-N′-(naphthalen-2-ylmethylene)benzohydrazide], the improving heart function [1] is listed as “very effective”, the “DDIT4 protein expression level” value (C57BL/6J male mice; quadricep muscle, 3 h post 50 mg/kg i.p.) is listed as 3.5 × and the “increase in Ddit4 expression” value (C57BL/6J male mice; sedentary mice, single dose 50 mg/kg i.p., 1 h) is listed as ~3 fold. The “increase in Ddit4 expression, drug plus exercise” value (C57BL/6J male mice; single dose 50 mg/kg i.p. and treadmill run, 1 h) was ~11 fold, the “increase in Slc25a25 expression” value (C57BL/6J male mice; single dose 50 mg/kg i.p., 1 h) was 11 fold and the grip strength (mice [2]) was “increase”. The “increase in running distance vs vehicle” value (C57BL6/J mice) was ~45%, the “increase in running time vs vehicle” value (C57BL6/J mice) was ~70% and the “complete blood count and electrolyte levels” value ([3]; 50 mg/kg b.i.d., i.p., 10 days) was “normal”. The overt toxicity ([3]; 50 mg/kg b.i.d., i.p., 10 days) was “no overt toxicity”, the serum creatine kinase ([3]; skeletal muscle toxicity marker) was “no significant alterations” and the Ddit4 gene expression (C2C12 cells [4]) was “induced”. The “oxidative muscle phenotype (SDH staining)” value (C57BL/6J mice; 50 mg/kg b.i.d. i.p., 15 days, quadricep) was “greater SDH staining”, the “myofiber diameter (laminin staining)” value (C57BL/6J mice; 50 mg/kg b.i.d., 15 days) was “smaller in diameter” and the “complex I (NDUFB8) and complex V (ATP5A) expression” value (C57BL/6J mice; [9]) was “increase”. The “cytochrome c protein expression” value (C57BL/6J mice; [9]) was “increase”, the “Myosin IIA protein (western blot)” value (C57BL/6J mice; quadriceps) was “increased expression” and the “expression of Myh6” value (C57BL/6J mice; quadriceps) was “increase”. The “oxidative type IIa muscle fibers” value (C57BL/6J mice; quadriceps, 50 mg/kg b.i.d.) was “increased”, the “mitochondria content (electron micrographs of quadriceps)” value (C57BL/6J mice; vs vehicle-treated) was “increase” and the “expression of Pdk4” value (C2C12 cells [5]) was “clear increase”. For the same compound, the “exercise endurance, mERRα fl/fl mice” value [6, 10] was “significantly enhanced exercise endurance”, the “exercise endurance, mERRα−/− mice” value [6, 10] was “equivalent to vehicle-treated” and the “upregulation of Ddit4 in quadriceps” value ([6]; mERRα fl/fl vs mERRα−/− mice) was “observed only in mERRα^fl/fl”. The “Alas2 expression, mERRα fl/fl mice” value [6, 11] was “significantly induced”, the “Per1 expression, mERRα fl/fl mice” value [6, 11] was “significantly induced” and the “effect on Ddit4 expression in ERRα or ERRα/γ null myocytes” value (primary mouse myocytes; 1 μM, 2 h) was “lost”. The “effect on Ddit4 expression in ERRγ null myocytes” value (primary mouse myocytes; 1 μM, 2 h) was “retained”, the “Ddit4 expression, 2 h” value (primary mouse myocytes; primary mouse myocytes, 1 μM, 2 h) was “induced” and the “Ddit4 induction, 24 h” value (primary mouse myocytes; primary mouse myocytes, 1 μM, 24 h) was “not observed”. The “expression of Slc25a25” value (primary mouse myocytes; primary myocytes, 1 μM, 2 h) was “induced”, the “ERRα dependence of Slc25a25 responsiveness” value (primary mouse myocytes; primary myocytes, WT vs KO) was “completely ERRα-dependent” and the “mitochondrial biogenesis (MitoTracker Red)” value (C2C12 cells [7]) was “substantially induced”. The “activity at ERRs” value (Gal4-ERR LBD) was “displayed activity at all ERRs”, the “thermal stability of purified ERRγ LBD” value (ERRγ LBD) was “dose-dependently increased the thermal stability” and the circadian locomotor activity (mice [8]) was “no alterations”.
